Measurements: ChEMBL document CHEMBL1147386, “Pantherinine, a cytotoxic aromatic alkaloid, and 7-deazainosine from the ascidian Aplidium pantherinum” (1993)
≈ marks a conversion by molar mass, not a printed value.

Tested on: P388
Experiment: Cytotoxicity against mouse P388 cells
Format: functional

| Compound | Activity | EC50 (read-out: ED50 (the source's name)) |
| --- | --- | --- |
| Nc1ncnc2c1ccn2[C@@H]1O[C@H](CO)[C@@H](O)[C@H]1O | Toxic | – |
| NC1=Cc2nc3ccc(Br)cc3c3ccnc(c23)C1=O [PANTHERININE] | – | 4.5 µg/mL (≈ 13.8 µM) |
